Measurements reported in patent publication US9409884B2 (Rigel Pharmaceuticals, Inc., priority 2012, dated 2016).

Target: AMPK
Assay: AMPK activation, enzyme-linked immunosorbent assay
Assay type: biochemical
Details: Table 8, compounds of Table 1
Summary of the method: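 Read-out: ELISA, used to detect compound-driven activation of AMPK.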

| EC50 [nM] | SMILES |
| --- | --- |
| < 100 | O=C(NC1CCN(Cc2ccc(N3CCOCC3)cc2)CC1)c1ccc(OC2CCN(c3ccc(C(F)(F)F)cc3)CC2)cn1 [Compound 1-40, N-(1-(4-morpholinobenzyl)piperidin-4-yl)-5-(1-(4-(trifluoromethyl)phenyl)piperidin-4-yloxy)picolinamide] |
| < 100 | Cc1c(C(=O)NC2CCN(Cc3cccnc3)CC2)oc2cc(OC3CCN(c4ccc(C(F)(F)F)cc4)CC3)ccc12 [Compound 1-69, 3-methyl-N-(1-(pyridin-3-ylmethyl)piperidin-4-yl)-6-(1-(4-(trifluoromethyl)phenyl)piperidin-4-yloxy)benzofuran-2-carboxamide] |
| 100 to 500 | CC(C)(C)OC(=O)N1CCC(NC(=O)c2cc3ccc(OC4CCN(c5ccc(C(F)(F)F)cc5)CC4)cc3o2)CC1 [Compound 1-82, tert-butyl 4-(6-(1-(4-(trifluoromethyl)phenyl)piperidin-4-yloxy)benzofuran-2-carboxamido) piperidine-1-carboxylate] |
| < 100 | Cc1c(C(=O)NC2CCN(Cc3ccc(F)cc3)CC2)oc2cc(OC3CCN(c4ccc(C(F)(F)F)cc4)CC3)ccc12 [Compound 1-63, N-(1-(4-fluorobenzyl)piperidin-4-yl)-3-methyl-6-(1-(4-(trifluoromethyl)phenyl)piperidin-4-yloxy)benzofuran-2-carboxamide] |
| 1000 to 5000 | NC(=O)c1ccc(CN2CCC(Oc3ccc4oc(C(=O)NC5CCN(Cc6ccncc6)CC5)cc4c3)CC2)cc1 [Compound 1-131, 5-(1-(4-carbamoylbenzyl)piperidin-4-yloxy)-N-(1-(pyridin-4-ylmethyl)piperidin-4-yl)benzofuran-2-carboxamide] |
| < 100 | COC(=O)c1ccc(CN2CCC(NC(=O)c3ccc(OC4CCN(c5ccc(C#N)cc5)CC4)cn3)CC2)cc1 [Compound 1-7, methyl 4-((4-(5-(1-(4-cyanophenyl)piperidin-4-yloxy)picolinamido)piperidin-1-yl)methyl)benzoate] |
| 1000 to 5000 | O=C(NC1CN(Cc2ccncc2)C1)c1ccc(OC2CCN(c3ccc(C(F)(F)F)cc3)CC2)cn1 [Compound 1-42, N-(1-(pyridin-4-ylmethyl)azetidin-3-yl)-5-(1-(4-(trifluoromethyl)phenyl)piperidin-4-yloxy)picolinamide] |
| < 100 | O=C(NC1CCN(Cc2ccncc2)CC1)c1ccc(OC2CCN(c3ccc(C(F)(F)F)cc3)CC2)cn1 [Compound 1-3, N-(1-(pyridin-4-ylmethyl)piperidin-4-yl)-5-(1-(4-(trifluoromethyl)phenyl)piperidin-4-yloxy)picolinamide] |
| < 100 | CN(C(=O)c1cc2cc(OC3CCN(c4ccc(C(F)(F)F)cc4)CC3)ccc2o1)C1CCN(Cc2cccnc2)CC1 [Compound 1-109, N-methyl-N-(1-(pyridin-3-ylmethyl)piperidin-4-yl)-5-(1-(4-(trifluoromethyl)phenyl)piperidin-4-yloxy)benzofuran-2-carboxamide] |

Same assay, conditions: Table 9, compounds of Table 2

| EC50 [nM] | SMILES |
| --- | --- |
| > 100000 | NC(=O)c1ccc(CN2CCC(NC(=O)c3ccc4[nH]c5c(c4c3)CN(Cc3ccc(C(N)=O)cc3)CC5)CC2)cc1 [Compound 2-49, 2-(4-carbamoylbenzyl)-N-(1-(4-carbamoylbenzyl)piperidin-4-yl)-2,3,4,5-tetrahydro-1H-pyrido[4,3-b]indole-8-carboxamide] |
| > 100000 | NC(=O)c1ccc(CN2CCc3[nH]c4ccc(C(=O)NC5CCN(C(=O)c6ccncc6)CC5)cc4c3C2)cc1 [Compound 2-46, 2-(4-carbamoylbenzyl)-N-(1-isonicotinoylpiperidin-4-yl)-2,3,4,5-tetrahydro-1H-pyrido[4,3-b]indole-8-carboxamide] |
| 10000 to 50000 | CC(C)(C)OC(=O)N1CCC(NC(=O)c2ccc3[nH]c4c(c3c2)CN(c2ccc(F)cc2)CC4)CC1 [Compound 2-38, tert-butyl 4-(2-(4-fluorophenyl)-2,3,4,5-tetrahydro-1H-pyrido[4,3-b]indole-8-carboxamido)piperidine-1-carboxylate] |
| 1000 to 5000 | CC(=O)n1c2c(c3cc(C(=O)NC4CCN(Cc5cccnc5)CC4)ccc31)CN(Cc1ccc(C(F)(F)F)cc1)CC2 [Compound 2-20, 5-acetyl-N-(1-(pyridin-3-ylmethyl)piperidin-4-yl)-2-(4-(trifluoromethyl)benzyl)-2,3,4,5-tetrahydro-1H-pyrido[4,3-b]indole-8-carboxamide] |
| < 500 | N#Cc1ccc(CN2CCC(NC(=O)c3ccc4[nH]c5c(c4c3)CN(Cc3ccc(C(F)(F)F)cc3)CC5)CC2)cc1 [Compound 2-12, N-(1-(4-cyanobenzyl)piperidin-4-yl)-2-(4-(trifluoromethyl)benzyl)-2,3,4,5-tetrahydro-1H-pyrido[4,3-b]indole-8-carboxamide] |

Same assay, conditions: Table 10, compounds of Table 3

| EC50 [nM] | SMILES |
| --- | --- |
| < 100 | N#Cc1ccc(CN2CCC(NC(=O)c3cnc(OC4CCN(c5ccc(C(F)(F)F)cc5)CC4)cn3)CC2)cc1 [Compound 3-22, N-(1-(4-cyanobenzyl)piperidin-4-yl)-5-(1-(4-(trifluoromethyl)phenyl)piperidin-4-yloxy)pyrazine-2-carboxamide] |
| 10000 to 100000 | N#Cc1ccc(CN2CCC(NC(=O)c3ccc(C(=O)NC4CCN(c5ccccc5)CC4)cc3)CC2)cc1 [Compound 3-32, N^1-(1-(4-cyanobenzyl)piperidin-4-yl)-N^4-(1-phenylpiperidin-4-yl)terephthalamide] |

Same assay, conditions: Table 12, compounds of Table 5

| EC50 [nM] | SMILES |
| --- | --- |
| 1000 to 10000 | COc1cc(C(=O)NC2CCN(Cc3ccccc3)CC2)ccc1OC1CCN(c2ccco2)CC1 [Compound 5-12, N-(1-benzylpiperidin-4-yl)-3-methoxy-4-(1-(furan-2-yl)piperidin-4-yloxy)benzamide] |
| < 1000 | CC(C)Oc1ccc(CN2CC[C@@H](Oc3cccc(C(=O)NC4CCN(Cc5ccc(C#N)cc5)CC4)c3)[C@H](F)C2)cc1 [Compound 5-127, N-(1-(4-cyanobenzyl)piperidin-4-yl)-3-((3,4-trans)-3-fluoro-1-(4-isopropoxybenzyl)piperidin-4-yloxy)benzamide] |
| 1000 to 10000 | O=C(O)c1ccc(CN2CCC(NC(=O)c3ccc(OC4CCN(c5ccc(C(F)(F)F)cc5)CC4)c(F)c3)CC2)cc1 [Compound 5-35, 4-((4-(3-fluoro-4-(1-(4-(trifluoromethyl)phenyl)piperidin-4-yloxy)benzamido)piperidin-1-yl)methyl)benzoic acid] |
| 1000 to 10000 | O=C(NC1CCN(Cc2ccccc2)CC1)c1ccc(OC2CCN(Cc3cccnc3)CC2)c(F)c1 [Compound 5-38, N-(1-benzylpiperidin-4-yl)-3-fluoro-4-(1-(pyridin-3-ylmethyl)piperidin-4-yloxy)benzamide] |
| < 1000 | N#Cc1ccc(CN2CCC(Oc3c(Cl)cc(C(=O)NC4CCN(Cc5ccccc5)CC4)cc3Cl)CC2)cc1 [Compound 5-77, N-(1-benzylpiperidin-4-yl)-3,5-dichloro-4-(1-(4-cyanobenzyl)piperidin-4-yloxy)benzamide] |
| < 1000 | O=C(NC1CCN(Cc2ccccc2)CC1)c1ccc(OC2CCN(Cc3ccncc3)CC2)c(F)c1 [Compound 5-37, N-(1-benzylpiperidin-4-yl)-3-fluoro-4-(1-(pyridin-4-ylmethyl)piperidin-4-yloxy)benzamide] |
| < 1000 | O=C(NC1CCN(Cc2ccncc2)CC1)c1cccc(OC2CCN(c3ccc(C(F)(F)F)cc3)CC2)c1 [Compound 5-87, N-(1-(pyridin-4-ylmethyl)piperidin-4-yl)-3-(1-(4-(trifluoromethyl)phenyl)piperidin-4-yloxy)benzamide] |
| 10000 to 20000 | O=C(NC1CCN(Cc2ccccc2)CC1)c1cccc(OC2CCN(c3ccncc3)CC2)c1 [Compound 5-53, N-(1-benzylpiperidin-4-yl)-3-(1-(pyridin-4-yl)piperidin-4-yloxy)benzamide] |

Same assay, conditions: Table 13, compounds of Table 6

| EC50 [nM] | SMILES |
| --- | --- |
| 1000 to 10000 | N#Cc1ccc(CN2CCC(NC(=O)c3cc4cc(NC(=O)C5CCN(Cc6cnn(-c7ccccn7)c6)CC5)ccc4o3)CC2)cc1 [Compound 6-41, N-(2-(1-(4-cyanobenzyl)piperidin-4-ylcarbamoyl)benzofuran-5-yl)-1-((1-(pyridin-2-yl)-1H-pyrazol-4-yl)methyl)piperidine-4-carboxamide] |
| < 100 | N#Cc1ccc(CN2CCC(NC(=O)c3cc4cc(C(=O)N5CCN(Cc6ccc(-c7ccccn7)cc6)CC5)ccc4o3)CC2)cc1 [Compound 6-82, N-(1-(4-cyanobenzyl)piperidin-4-yl)-5-(4-(4-(pyridin-2-yl)benzyl)piperazine-1-carbonyl)benzofuran-2-carboxamide] |

Same assay, conditions: Table 14, compounds of Table 7

| EC50 [nM] | SMILES |
| --- | --- |
| 1000 to 10000 | COc1ccc(C(=O)C2CCN(C(=O)c3ccc(C(=O)NC4CCN(Cc5ccc(C#N)c(OC)c5)CC4(C)C)cn3)CC2)cc1 (stereo not shown) [Compound 7-89, N-(1-(4-cyano-3-methoxybenzyl)-3,3-dimethylpiperidin-4-yl)-6-(4-(4-methoxybenzoyl)piperidine-1-carbonyl)nicotinamide] |
| < 1000 | N#Cc1ccc(CN2CC[C@@H](NC(=O)c3ccc(C(=O)N4CCC(Oc5ccc(S(=O)(=O)C(F)(F)F)cc5)CC4)nc3)[C@H](F)C2)cc1 (relative stereo) [Compound 7-119, N-((trans)-1-(4-cyanobenzyl)-3-fluoropiperidin-4-yl)-6-(4-(4-(trifluoromethylsulfonyl)phenoxy)piperidine-1-carbonyl)nicotinamide] |
| < 1000 | CC(C)Oc1ccc(CN2CCC(NC(=O)c3ccc(C(=O)N4CCC(C(=O)c5ccc(N6CCCC6)cc5)CC4)nc3)CC2)cc1 [Compound 7-116, N-(1-(4-isopropoxybenzyl)piperidin-4-yl)-6-(4-(4-(pyrrolidin-1-yl)benzoyl)piperidine-1-carbonyl)nicotinamide] |
| < 1000 | N#Cc1ccc(O[C@H]2CC[C@@H](NC(=O)c3ccc(C(=O)N4CCC(C(=O)c5ccc(N6CCCC6)cc5)CC4)nc3)CC2)cc1 [Compound 7-112, N-((cis)-4-(4-cyanophenoxy)cyclohexyl)-6-(4-(4-(pyrrolidin-1-yl)benzoyl)piperidine-1-carbonyl)nicotinamide] |
| < 1000 | N#Cc1ccc(OC2CCN(C(=O)c3ccc(C(=O)NC4CCN(Cc5ccc(OC(F)(F)F)cc5)CC4F)cn3)CC2)cc1 (stereo not drawn) [Compound 7-62, 6-(4-(4-cyanophenoxy)piperidine-1-carbonyl)-N-((3,4-trans)-3-fluoro-1-(4-(trifluoromethoxy)benzyl)piperidin-4-yl)nicotinamide] |
